Columns and labels:
Assay type in all cases: in vivo, rat
[1] = system: orchiectomized (ORX) rats; assay: Test Example 3: effect on prostate, levator ani muscle and femoral bone mineral density in ORX rats (subcutaneous); details: for Femoral bone mineral density / Weight of levator ani muscle / Weight of prostate: 5 days a week, 4 weeks
Protocol: (§1) Testes were removed from 12-week-old male SD rats. Starting on the next day, the compound of Example 12 or 65 (30 mg/kg) or DHT (0.1, 1, 10 mg/kg) was subcutaneously administered once daily for four consecutive weeks on a 5-day-a-week basis. The Example compounds and DHT were dissolved in dimethyl sulfoxide and diluted 10-fold with olive oil to prepare solutions with various concentrations for use in the test. In an ORX control group, dimethyl sulfoxide as diluted 10-fold with olive oil was used for the test. Rats which had been falsely operated on without orchiectomy were used as a sham control group. On the next day after final administration, the wet weights of the ventral prostate and levator ani muscle were measured and the right femoral bone mineral density was measured by DEXA (double energy X-ray absorption) to evaluate the in vivo efficacy of the compounds of Example 12 and 65.

[2] = system: orchiectomized (ORX) rats; assay: Test Example 6: effect of oral administration on prostate, levator ani muscle and femoral bone mineral density in ORX rats; details: for Femoral bone mineral density / Weight of levator ani muscle / Weight of prostate: 7 days a week
Protocol: (§2) Testes were removed from 12-week-old male SD rats. Starting on the next day, the compound of Example 108 (30 mg/5 ml/kg) was orally administered once daily for four consecutive weeks on a 7-day-a-week basis. As a positive control, methyl testosterone (MT) (100 mg/5 ml/kg) was orally administered once daily on a continuous 7-day-a-week basis. The test compound was suspended in a 0.5% methyl cellulose solution used as a solvent and the suspension was used in the test. In an ORX control group, a 0.5% methyl cellulose solution (5 ml/kg) was administered. Rats which had been falsely operated on without orchiectomy were used as a sham control group. On the next day after final administration, the wet weights of the ventral prostate and levator ani muscle were measured and the right femoral bone mineral density was measured by DEXA (double energy X-ray absorption) to evaluate the in vivo efficacy of the compound of Example 108. The results are shown in Table 20 and in FIGS. 13 to 15.

[3] = system: orchiectomized (ORX) rats; assay: Test Example 7: effect of oral administration on prostate, levator ani muscle and femoral bone mineral density in ORX rats; details: for Femoral bone mineral density / Weight of levator ani muscle / Weight of prostate: 7 days a week
Protocol: as §2, with “129” for “108”, “129.” for “108.”, “21” for “20”, “16” for “13”, “18.” for “15.”

[4] = system: orchiectomized (ORX) rats; assay: Test Example 2: effect on prostate, levator ani muscle and femoral bone mineral density in ORX rats (subcutaneous); details: for Femoral bone mineral density / Weight of levator ani muscle / Weight of prostate: 5 days a week, 4 weeks
Protocol: as §1, with “1 (3, 10, 30” for “12 or 65 (30”, “compound” for “compounds”, “1.” for “12 and 65.”

[5] = system: orchiectomized (ORX) rats; assay: Test Example 4: effect on prostate, levator ani muscle and femoral bone mineral density in ORX rats (subcutaneous)
Protocol: as §1, with “Example 113” for “Example 12”, “or 114” for “or 65”, “DHT (10” for “DHT (0.1, 1, 10”, “test. […]” for “test. Rats which had been falsely operated on without orchiectomy were used as a sham control group.”, “and 114.” for “and 65.”

[6] = system: orchiectomized (ORX) rats; assay: Test Example 5: effect of oral administration on prostate, levator ani muscle and femoral bone mineral density in ORX rats
Protocol: Testes were removed from 12-week-old male SD rats. Starting on the next day, the compound of Example 1 (100 mg/10 ml/kg) was orally administered once daily for four consecutive weeks on a 5-day-a-week basis. As a positive control, testosterone propionate (TP) (10 mg/kg) was subcutaneously administered once daily on a continuous 5-day-a-week basis. The test compound was suspended in a 0.5% methyl cellulose solution used as a solvent whereas TP was dissolved in dimethyl sulfoxide and diluted 10-fold with olive oil for use in the test. In an ORX control group, dimethyl sulfoxide as diluted 10-fold with olive oil was used for the test. Rats which had been falsely operated on without orchiectomy were used as a sham control group. On the next day after final administration, the wet weights of the ventral prostate and levator ani muscle were measured and the right femoral bone mineral density was measured by DEXA (double energy X-ray absorption) to evaluate the in vivo efficacy of the compound of Example 1. The results are shown in Table 19 and in FIGS. 10 to 12.

[7] = 30 mg/kg orally once daily, 4 weeks
[8] = 10 mg/kg sc once daily, 5 days a week, 4 weeks
[9] = 10 mg/kg sc once daily, 5 days a week

With `CC(C)(CNC(=O)c1ccc(OC(F)(F)F)cc1)[C@H]1Nc2ccc([N+](=O)[O-])cc2[C@H]2OCC[C@H]21` (relative stereo) [Example 65, (3aS*,4S*,9bS*)-N-[2-methyl-2-(8-nitro-2,3,3a,4,5,9b-hexahydro-furo[3,2-c]quinolin-4-yl)propyl]-4-trifluoromethoxybenzamide] the “Prostate weight as % of the level of the sham control group” value (shortened to “Prostate weight as %”) ([1]; 30 mg/kg sc) was “about 70%”, the “Femoral bone mineral density” value ([1]; 30 mg/kg sc once daily) was 120 ± 5 mg/cm^2 and the “Weight of levator ani muscle” value ([1]; 30 mg/kg sc once daily) was 67 ± 6 mg/100 g body weight. The Weight of prostate ([1]; 30 mg/kg sc once daily) was 69 ± 10 mg/100 g body weight.
For `CC(=O)Nc1ccc(C(=O)NCC(C)(C)[C@H]2Nc3ccc(C#N)cc3[C@H]3C=CC[C@H]32)cn1` (relative stereo) [Example 108, (3aR*,4S*,9bS*)-6-acetylamino-N-[2-(8-cyano-3a,4,5,9b-tetrahydro-3H-cyclopenta[c]quinolin-4-yl)-2-methyl-propyl]nicotinamide], the “Prostate weight as %” value ([2]; 30 mg/kg orally) was “about 70%”, the “Femoral bone mineral density” value [2, 7] was 141 ± 6 mg/cm^2 and the “Weight of levator ani muscle” value [2, 7] was 61 ± 6 mg/100 g body weight. The Weight of prostate [2, 7] was 67 ± 13 mg/100 g body weight.
`CC(=O)Nc1ccc(C(=O)NCC(C)[C@H]2Nc3ccc(C#N)cc3[C@H]3OCC[C@H]32)cc1` (relative stereo) [Example 129, (3aS*,4R*,9bS*)-4-acetylamino-N-[2-(8-cyano-2,3,3a,4,5,9b-hexahydro-furo[3,2-c]quinolin-4-yl)propyl]benzamide] was tested, and the “Prostate weight as %” value ([3]; 30 mg/kg orally) was “about 85%”, the “Femoral bone mineral density” value [3, 7] was 145 ± 5 mg/cm^2 and the “Weight of levator ani muscle” value [3, 7] was 66 ± 6 mg/100 g body weight. The Weight of prostate [3, 7] was 109 ± 66 mg/100 g body weight.
`C[C@]12CCC(=O)C[C@@H]1CC[C@@H]1[C@@H]2CC[C@]2(C)[C@@H](O)CC[C@@H]12` [DHT, Dihydrotestosterone, reference compound] was tested, and the “Femoral bone mineral density” value ([4]; 0.1 mg/kg sc once daily) was 114 ± 6 mg/cm^2, the “Weight of levator ani muscle” value ([4]; 0.1 mg/kg sc once daily) was 39 ± 9 mg/100 g body weight and the Weight of prostate ([4]; 0.1 mg/kg sc once daily) was 38 ± 7 mg/100 g body weight. For the same molecule, the “Femoral bone mineral density” value ([4]; 1 mg/kg sc once daily) was 115 ± 4 mg/cm^2, the “Weight of levator ani muscle” value ([4]; 1 mg/kg sc once daily) was 58 ± 5 mg/100 g body weight and the Weight of prostate ([4]; 1 mg/kg sc once daily) was 100 ± 9 mg/100 g body weight. For the same molecule, the “Prostate weight as %” value ([4]; 10 mg/kg sc) was “about 160%”, the “Femoral bone mineral density” value ([4]; 10 mg/kg sc once daily) was 122 ± 3 mg/cm^2 and the “Weight of levator ani muscle” value ([4]; 10 mg/kg sc once daily) was 78 ± 6 mg/100 g body weight. For the same molecule, the Weight of prostate ([4]; 10 mg/kg sc once daily) was 166 ± 26 mg/100 g body weight, the “Femoral bone mineral density” value ([1]; 0.1 mg/kg sc once daily) was 114 ± 6 mg/cm^2 and the “Weight of levator ani muscle” value ([1]; 0.1 mg/kg sc once daily) was 37 ± 6 mg/100 g body weight. The Weight of prostate ([1]; 0.1 mg/kg sc once daily) was 34 ± 11 mg/100 g body weight, the “Femoral bone mineral density” value ([1]; 1 mg/kg sc once daily) was 115 ± 4 mg/cm^2 and the “Weight of levator ani muscle” value ([1]; 1 mg/kg sc once daily) was 47 ± 3 mg/100 g body weight. The Weight of prostate ([1]; 1 mg/kg sc once daily) was 81 ± 15 mg/100 g body weight, the “Prostate weight as %” value ([1]; 10 mg/kg sc) was “about 145%” and the “Femoral bone mineral density” value ([1]; 10 mg/kg sc once daily) was 122 ± 3 mg/cm^2. For the same molecule, the “Weight of levator ani muscle” value ([1]; 10 mg/kg sc once daily) was 80 ± 5 mg/100 g body weight, the Weight of prostate ([1]; 10 mg/kg sc once daily) was 146 ± 16 mg/100 g body weight and the “Prostate weight as %” value ([5]; 10 mg/kg sc) was “about 140%”. The “Femoral bone mineral density” value [5, 8] was 148 ± 5 mg/cm^2, the “Weight of levator ani muscle” value [5, 8] was 89 ± 7 mg/100 g body weight and the Weight of prostate [5, 8] was 199 ± 27 mg/100 g body weight.
In the case of `C[C@]12CCC(=O)C=C1CC[C@@H]1[C@@H]2CC[C@@]2(C)[C@H]1CC[C@]2(C)O` [MT, methyl testosterone, reference compound], the “Prostate weight as %” value ([2]; 100 mg/kg orally) was “about 120%”, the “Femoral bone mineral density” value ([2]; 100 mg/kg orally once daily) was 146 ± 5 mg/cm^2 and the “Weight of levator ani muscle” value ([2]; 100 mg/kg orally once daily) was 65 ± 8 mg/100 g body weight. The Weight of prostate ([2]; 100 mg/kg orally once daily) was 117 ± 18 mg/100 g body weight, the “Prostate weight as %” value ([3]; 100 mg/kg orally) was “about 115%” and the “Femoral bone mineral density” value ([3]; 100 mg/kg orally once daily) was 149 ± 6 mg/cm^2. The “Weight of levator ani muscle” value ([3]; 100 mg/kg orally once daily) was 63 ± 5 mg/100 g body weight and the Weight of prostate ([3]; 100 mg/kg orally once daily) was 143 ± 63 mg/100 g body weight.
In the case of `CCC(=O)O[C@H]1CC[C@H]2[C@@H]3CCC4=CC(=O)CC[C@]4(C)[C@H]3CC[C@]12C` [TP, testosterone propionate, reference compound], the “Prostate weight as %” value ([6]; 10 mg/kg sc) was “about 125%”, the “Femoral bone mineral density” value [6, 9] was 135 ± 8 mg/cm^2 and the “Weight of levator ani muscle” value [6, 9] was 88 ± 9 mg/100 g body weight. The Weight of prostate [6, 9] was 204 ± 29 mg/100 g body weight.
